Test results from patent US9090538B2, “Uses of esteramide compounds” (priority 2010, dated 2015).

Legend:
Assay type in all cases: physicochemical
Set-up in all cases: key: Crystal: When the formation of active crystals is observed, the term of <> is indicated; Limpid: When the solution remains limpid (absence of solid or cloudiness), it is the term of <> which is indicated
[1] = Visual observation at 25° C. of formulation of active in solvent
Protocol: (§1) Formulations were made by diluting various actives, reported below in the table, in the compounds 1-4 synthesized above.
1) Visual observation at 25° C.
The aspect of the formulation is noted and the presence of crystals is possibly located.
(§2) The actives used are commercially available.

[2] = Visual observation at 0° C. with nucleation (crystal of pure active introduced, 7 more days at 0° C.); conditions: crystal of active added
Protocol: as §1
3) Visual observation at 0° C. with nucleation (by introducing a crystal of the pure active into the liquid)
A crystal of the active material is introduced into the formulation which has spent 7 days at 0° C. for nucleation, and the formulation is again placed for 7 days at 0° C. The aspect of the formulation is noted and the presence of crystals or the growth of the introduced crystal is possibly located.
as §2

[3] = Visual observation at 0° C. after 7 days (CIPAC MT39 test); conditions: 7 days at 0° C.
Protocol: as §1
2) Visual observation at 0° C.
The formulation is placed at 0° C. for 7 days and the aspect of the formulation is noted and the presence of crystals is possibly located (CIPAC MT39 test).
as §2

[4] = active Alachlor 48% EC in the compound as solvent
[5] = active Azoxystrobine 25% EC in the compound as solvent
[6] = active Difenconazole 25% EC in the compound as solvent
[7] = active Dimethoate 40% EC in the compound as solvent
[8] = active Oxyfluorfen 22% EC in the compound as solvent
[9] = active Pendimethalin 33% EC in the compound as solvent
[10] = active Phenmedipham 16% EC in the compound as solvent
[11] = active Propanil 36% EC in the compound as solvent
[12] = active Propuxur 20% EC in the compound as solvent
[13] = active Tebuconazole 25% EC in the compound as solvent
[14] = active Trifluralin 40% EC in the compound as solvent
[15] = active alpha-Cypermethrin 10% EC in the compound as solvent
[16] = active Chlorpyrifos 40% EC in the compound as solvent

| SMILES | Aspect at 25° C. [1, 4] | Aspect at 25° C. [1, 6] | Aspect at 25° C. [1, 7] | Aspect at 25° C. [1, 8] | Aspect at 25° C. [1, 9] | Aspect at 25° C. [1, 11] | Aspect at 25° C. [1, 12] | Aspect at 25° C. [1, 14] | Aspect at 25° C. [1, 15] | Aspect at 0° C. with nucleation [2, 4] | Aspect at 0° C. with nucleation [2, 6] | Aspect at 0° C. with nucleation [2, 11] | Aspect at 0° C. with nucleation [2, 15] | Aspect at 0° C. [3, 4] | Aspect at 0° C. [3, 6] | Aspect at 0° C. [3, 7] | Aspect at 0° C. [3, 8] | Aspect at 0° C. [3, 9] | Aspect at 0° C. [3, 11] | Aspect at 0° C. [3, 14] | other results |
| --- | --- | --- | --- | --- | --- | --- | --- | --- | --- | --- | --- | --- | --- | --- | --- | --- | --- | --- | --- | --- | --- |
| COC(=O)C(=O)N(C)C [Compound 1, methyl 2-(dimethylamino)-2-oxoacetate] | Limpid | Limpid | Limpid | Limpid | Limpid | Limpid | Limpid | Limpid | Limpid | Limpid | Limpid | Limpid | Limpid | Limpid | Limpid | Crystal | Crystal | Crystal | Limpid | Crystal | Aspect at 25° C. [1, 5]: Limpid; Aspect at 25° C. [1, 10]: Limpid; Aspect at 25° C. [1, 13]: Limpid; Aspect at 0° C. with nucleation [2, 10]: Limpid; Aspect at 0° C. with nucleation [2, 12]: Limpid; Aspect at 0° C. [3, 5]: Crystal; Aspect at 0° C. [3, 10]: Limpid; Aspect at 0° C. [3, 12]: Limpid; Aspect at 0° C. [3, 13]: Crystal; Aspect at 0° C. [3, 15]: Limpid |
| CCCCCCCCCCOC(=O)C(=O)N(C)C [Compound 4, n-decyl 2-(dimethylamino)-2-oxoacetate] | Limpid | Limpid | – | Limpid | – | Limpid | – | Limpid | – | Limpid | Limpid | – | – | Limpid | Limpid | – | Crystal | – | Crystal | Limpid | Aspect at 25° C. [1, 16]: Limpid; Aspect at 0° C. with nucleation [2, 14]: Limpid; Aspect at 0° C. [3, 16]: Crystal |
| CCCCC(CC)COC(=O)C(=O)N(C)C (centres unmarked) [Compound 3, 2-ethyl-hexyl 2-(dimethylamino)-2-oxoacetate] | Limpid | Limpid | Limpid | Limpid | Limpid | Limpid | Limpid | Limpid | Limpid | Limpid | Limpid | Limpid | Limpid | Limpid | Limpid | Crystal | Limpid | Crystal | Limpid | Limpid | Aspect at 25° C. [1, 16]: Limpid; Aspect at 0° C. with nucleation [2, 16]: Limpid; Aspect at 0° C. with nucleation [2, 8]: Crystal; Aspect at 0° C. with nucleation [2, 14]: Limpid; Aspect at 0° C. [3, 16]: Limpid; Aspect at 0° C. [3, 12]: Crystal; Aspect at 0° C. [3, 15]: Limpid |
| CCOC(=O)C(=O)N(C)C [Compound 2, ethyl 2-(dimethylamino)-2-oxoacetate] | Limpid | Limpid | Limpid | Limpid | Limpid | Limpid | Limpid | Limpid | Limpid | Limpid | Limpid | Limpid | Limpid | Limpid | Limpid | Limpid | Limpid | Crystal | Limpid | Limpid | Aspect at 25° C. [1, 5]: Limpid; Aspect at 25° C. [1, 16]: Limpid; Aspect at 25° C. [1, 10]: Limpid; Aspect at 25° C. [1, 13]: Limpid; Aspect at 0° C. with nucleation [2, 16]: Limpid; Aspect at 0° C. with nucleation [2, 7]: Crystal; Aspect at 0° C. with nucleation [2, 8]: Limpid; Aspect at 0° C. with nucleation [2, 10]: Limpid; Aspect at 0° C. with nucleation [2, 14]: Limpid; Aspect at 0° C. [3, 5]: Crystal; Aspect at 0° C. [3, 16]: Limpid; Aspect at 0° C. [3, 10]: Limpid; Aspect at 0° C. [3, 12]: Crystal; Aspect at 0° C. [3, 13]: Crystal; Aspect at 0° C. [3, 15]: Limpid |
